Experimental data taken from patent US9751869B2, “LXR modulators” (BRISTOL-MYERS SQUIBB COMPANY, priority 2013, dated 2017).
pEC50: −log10 of the molar value.

Molecular target: T1, LXRβ (Homo sapiens, UniProt P55055)
T1 construct: Co-transfection expression plasmids, comprising full-length LXRα (pCMX-h LXRα or LXRβ (pCMX-hLXRβ)); expressed in transfected cells; host or cells: CV-1 African green monkey kidney cells, transient transfection with pCMX-hLXRβ
T1 sequence (P55055 1-460): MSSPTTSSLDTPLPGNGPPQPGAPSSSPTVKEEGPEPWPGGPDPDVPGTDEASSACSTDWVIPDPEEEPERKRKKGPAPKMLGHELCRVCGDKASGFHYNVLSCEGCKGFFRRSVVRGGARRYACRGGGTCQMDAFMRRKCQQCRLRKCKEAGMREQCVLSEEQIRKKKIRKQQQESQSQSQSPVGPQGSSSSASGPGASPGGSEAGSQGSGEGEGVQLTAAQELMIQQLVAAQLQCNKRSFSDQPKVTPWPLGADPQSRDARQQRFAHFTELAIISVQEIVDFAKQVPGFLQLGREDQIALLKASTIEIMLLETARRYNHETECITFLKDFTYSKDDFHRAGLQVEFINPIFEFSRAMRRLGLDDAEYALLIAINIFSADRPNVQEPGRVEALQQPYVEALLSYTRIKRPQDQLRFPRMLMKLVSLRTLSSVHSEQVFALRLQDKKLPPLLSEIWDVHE
T1 sequence (P19793 1-462 partner): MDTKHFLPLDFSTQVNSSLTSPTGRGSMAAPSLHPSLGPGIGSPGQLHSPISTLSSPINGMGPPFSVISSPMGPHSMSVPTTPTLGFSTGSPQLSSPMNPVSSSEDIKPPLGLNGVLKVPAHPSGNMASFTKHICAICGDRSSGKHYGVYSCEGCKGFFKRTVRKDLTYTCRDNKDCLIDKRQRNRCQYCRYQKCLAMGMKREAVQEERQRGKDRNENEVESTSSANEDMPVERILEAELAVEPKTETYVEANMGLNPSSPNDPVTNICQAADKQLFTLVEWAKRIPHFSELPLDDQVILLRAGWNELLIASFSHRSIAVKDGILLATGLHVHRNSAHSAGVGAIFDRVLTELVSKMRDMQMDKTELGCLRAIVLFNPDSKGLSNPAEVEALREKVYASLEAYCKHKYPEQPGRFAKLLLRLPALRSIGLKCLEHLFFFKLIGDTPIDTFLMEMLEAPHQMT
Assay: LXR/LXRE co-transfection assay (luciferase reporter) in CV-1 cells, LXRβ
Assay type: cell-based
Settings: for pEC50: CV-1 cells transfected with pCMX-hLXRβ and LXREx1-Tk-Luciferase, 20 hours incubation, read-out: LXRbeta agonism EC50; for Emax: CV-1 cells, relative to maximum response of high control N-(3-((4-fluorophenyl)-(naphthalene-2-sulfonyl)amino)propyl)-2,2-dimethylpropionamide, read-out: LXRbeta % EFFICACY
Summary of the method: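 CV-1 cells transiently co-transfected with full-length human LXRβ, LXRE-Tk-luciferase reporter and β-galactosidase control, then exposed to compound (≤0.5% DMSO) for 20 h at 37 °C before luminescence read. EC50 from 10-point, half-log dose curves; efficacy relative to the sulfonamide high control, means of 2–3 experiments.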

SMILES | pEC50 | Emax
Cc1nc(-c2ccc3c(c2)OC(F)(F)O3)c(-c2cc(-c3cccc(S(C)(=O)=O)c3)ccc2-n2ccc(CO)n2)o1 [Example 363, (1-(3-(4-(2,2-difluorobenzo[d][1,3]dioxol-5-yl)-2-methyloxazol-5-yl)-3′-(methylsulfonyl)-[1,1′-biphenyl]-4-yl)-1H-pyrazol-3-yl)methanol] | 5.82 | 22%
Cc1nc(-c2ccc3c(c2)OC(F)(F)O3)c(-c2cc(-c3cccc(C(C)(C)C(N)=O)c3)ccc2-n2ccc(C(N)=O)n2)o1 [Example 364, 1-(3′-(1-amino-2-methyl-1-oxopropan-2-yl)-3-(4-(2,2-difluorobenzo[d][1,3]dioxol-5-yl)-2-methyloxazol-5-yl)-[1,1′-biphenyl]-4-yl)-1H-pyrazole-3-carboxamide] | 6.02 | 18%
Cc1nc(-c2ccc(OC(F)(F)F)cc2)c(-c2cc(-c3cccc(C(C)(C)C(N)=O)c3)ccc2-n2ccc(CC#N)n2)o1 [Example 365, 2-(4′-(3-(cyanomethyl)-1H-pyrazol-1-yl)-3′-(2-methyl-4-(4-(trifluoromethoxy)phenyl)oxazol-5-yl)-[1,1′-biphenyl]-3-yl)-2-methylpropanamide] | 6.37 | 76%
Cc1nc(-c2ccc(OC(F)(F)F)cc2)c(-c2cc(-c3cccc(C(C)(C)C(N)=O)c3)ccc2-n2ccc(C(=O)NCC(F)(F)F)n2)o1 [Example 366] | 6.53 | 28%
Cc1nc(-c2ccc(OC(F)(F)F)cc2)c(-c2cc(-c3cccc(S(C)(=O)=O)c3)ccc2-n2ccc(CC#N)n2)o1 [Example 369, 2-(1-(3-(2-methyl-4-(4-(trifluoromethoxy)phenyl)oxazol-5-yl)-3′-(methylsulfonyl)-[1,1′-biphenyl]-4-yl)-1H-pyrazol-3-yl)acetonitrile] | 6.65 | 99%
Cc1nc(-c2ccc(OC(F)(F)F)cc2)c(-c2cc(-c3cc(F)c(CO)c(S(C)(=O)=O)c3)ccc2-n2ccc(CC#N)n2)o1 [Example 370] | 6.90 | 86%
Cc1nc(-c2ccc(OC(F)(F)F)cc2)c(-c2cc(-c3cccc(S(C)(=O)=O)c3)ccc2-n2ccc(COC(N)=O)n2)o1 [Example 374, (1-(3-(2-methyl-4-(4-(trifluoromethoxy)phenyl)oxazol-5-yl)-3′-(methylsulfonyl)-[1,1′-biphenyl]-4-yl)-1H-pyrazol-3-yl) methyl carbamate] | 6.38 | 47%
Cc1nc(-c2ccc(OC(F)(F)F)cc2)c(-c2cc(-c3cc(F)c(CO)c(S(C)(=O)=O)c3)ccc2-n2ccc(COC(N)=O)n2)o1 [Example 375, (1-(3′-fluoro-4′-(hydroxymethyl)-3-(2-methyl-4-(4-(trifluoromethoxy)phenyl)oxazol-5-yl)-5′-(methylsulfonyl)-[1,1′-biphenyl]-4-yl)-1H-pyrazol-3-yl) methyl carbamate] | 6.70 | 62%
Cc1nc(-c2ccc(OC(F)(F)F)cc2)c(-c2cc(-c3cccc(C(C)(C)C(N)=O)c3)ccc2-n2ccc(COC(N)=O)n2)o1 [Example 376, (1-(3′-(1-amino-2-methyl-1-oxopropan-2-yl)-3-(2-methyl-4-(4-(trifluoromethoxy)phenyl)oxazol-5-yl)-[1,1′-biphenyl]-4-yl)-1H-pyrazol-3-yl)methyl carbamate] | 5.89 | 53%
Cc1nc(-c2ccc(OC(F)(F)F)cc2)c(-c2cc(-c3cccc(S(C)(=O)=O)c3)ccc2-n2cc(Cl)c(C(F)(F)F)n2)o1 [Example 380, 5-(4-(4-chloro-3-(trifluoromethyl)-1H-pyrazol-1-yl)-3′-(methylsulfonyl)-[1,1′-biphenyl]-3-yl)-2-methyl-4-(4-(trifluoromethoxy)phenyl) oxazole] | 6.33 | 29%
Cc1nc(-c2ccc(OC(F)(F)F)cc2)c(-c2cc(-c3cccc(C4(C(N)=O)CC4)c3)ccc2-n2nc(C(F)(F)F)cc2Cl)o1 [Example 381, 1-(4′-(5-chloro-3-(trifluoromethyl)-1H-pyrazol-1-yl)-3′-(2-methyl-4-(4-(trifluoromethoxy)phenyl)oxazol-5-yl)-[1,1′-biphenyl]-3-yl) cyclopropanecarboxamide] | 5.97 | 61%
CCOc1cc(C(F)(F)F)nn1-c1ccc(-c2cc(F)c(CO)c(S(C)(=O)=O)c2)cc1-c1nc(C)oc1-c1ccc(OC(F)(F)F)cc1 [Example 382, (4′-(5-ethoxy-3-(trifluoromethyl)-1H-pyrazol-1-yl)-3-fluoro-3′-(2-methyl-5-(4-(trifluoromethoxy)phenyl)oxazol-4-yl)-5-(methylsulfonyl)biphenyl-4-yl)methanol] | 6.20 | 50%

Further lines, results first:

pEC50 | Emax | SMILES
7.19 | 22% | Cc1nc(-c2ccc3c(c2)OC(F)(F)O3)c(-c2cc(-c3cccc(S(C)(=O)=O)c3)ccc2-n2ccc(C#N)n2)o1 [Example 362, 1-(3-(4-(2,2-difluorobenzo[d][1,3]dioxol-5-yl)-2-methyloxazol-5-yl)-3′-(methylsulfonyl)-[1,1′-biphenyl]-4-yl)-1H-pyrazole-3-carbonitrile]
6.92 | 33% | Cc1nc(-c2ccc(OC(F)(F)F)cc2)c(-c2cc(-c3cccc(S(C)(=O)=O)c3)ccc2-n2ccc(C(=O)NCC(F)(F)F)n2)o1 [Example 371, 1-(3-(2-methyl-4-(4-(trifluoromethoxy)phenyl)oxazol-5-yl)-3′-(methylsulfonyl)-[1,1′-biphenyl]-4-yl)-N-(2,2,2-trifluoroethyl)-1H-pyrazole-3-carboxamide]
6.91 | 38% | Cc1nc(-c2ccc(OC(F)(F)F)cc2)c(-c2cc(-c3cc(F)c(CO)c(S(C)(=O)=O)c3)ccc2-n2ccc(C(=O)NCC(F)(F)F)n2)o1 [Example 372]
7.04 | 22% | Cc1nc(-c2ccc(OC(F)(F)F)cc2)c(-c2cc(-c3cccc(S(C)(=O)=O)c3)ccc2-n2ccc(C(C)(C)C#N)n2)o1 [Example 373]
7.55 | 23% | Cc1nc(-c2ccc(OC(F)(F)F)cc2)c(-c2cc(-c3cc(F)c(CO)c(S(C)(=O)=O)c3)ccc2-n2ccc(C(C)(C)C#N)n2)o1 [Example 377, 2-(1-(3′-fluoro-4′-(hydroxymethyl)-3-(2-methyl-4-(4-(trifluoromethoxy)phenyl)oxazol-5-yl)-5′-(methylsulfonyl)-[1,1′-biphenyl]-4-yl)-1H-pyrazol-3-yl)-2-methylpropanenitrile]
7.82 | 29% | Cc1nc(-c2ccc(OC(F)(F)F)cc2)c(-c2cc(-c3ccc(CO)c(S(C)(=O)=O)c3)ccc2-n2ccc(C(C)(C)C#N)n2)o1 [Example 378, 2-(1-(4′-(hydroxymethyl)-3-(2-methyl-4-(4-(trifluoromethoxy)phenyl)oxazol-5-yl)-3-(methylsulfonyl)-[1,1′-biphenyl]-4-yl)-1H-pyrazol-3-yl)-2-methylpropanenitrile]
7.57 | 86% | Cc1nc(-c2ccc(OC(F)(F)F)cc2)c(-c2cc(-c3cc(F)c(CO)c(S(C)(=O)=O)c3)ccc2-n2cc(Cl)c(C(F)(F)F)n2)o1 [Example 379, (4′-(4-chloro-3-(trifluoromethyl)-1H-pyrazol-1-yl)-3-fluoro-3′-(2-methyl-4-(4-(trifluoromethoxy)phenyl)oxazol-5-yl)-5-(methylsulfonyl)-[1,1′-biphenyl]-4-yl)methanol]
7.74 | 76% | Cc1nc(-c2cc(-c3cccc(S(C)(=O)=O)c3)ccc2-n2nc(C(F)(F)F)cc2C)c(-c2ccc(OC(F)F)cc2)o1 [Example 383, 5-(4-(difluoromethoxy)phenyl)-2-methyl-4-(4-(5-methyl-3-(trifluoromethyl)-1H-pyrazol-1-yl)-3′-(methylsulfonyl)biphenyl-3-yl)oxazole]
7.82 | 73% | Cc1nc(-c2cc(-c3cc(F)c(CO)c(S(C)(=O)=O)c3)ccc2-n2nc(C(F)(F)F)cc2C)c(-c2ccc(OC(F)F)cc2)o1 [Example 384, (3′-(5-(4-(difluoromethoxy)phenyl)-2-methyloxazol-4-yl)-3-fluoro-4′-(5-methyl-3-(trifluoromethyl)-1H-pyrazol-1-yl)-5-(methylsulfonyl)biphenyl-4-yl)methanol]
